According to US11254649B2, “Crystalline fumarate salt of (S)-[3,4-difluoro-2-(2-fluoro-4-iodophenylamino)phenyl] [3-hydroxy-3-(piperidin-2-yl) azetidin-1-yl]-methanone” (Exelixis, Inc., priority 2015, dated 2022):
“Also recorded” adds a separate entry of the source. Counter-ions that a name gives are not always drawn.

Experiments:
Type in all cases: physicochemical
[1] = Intrinsic dissolution rate (USP <1088>); conditions: for Intrinsic Dissolution Rate: pellet 0.5 cm^2, 0.05M Acetate Buffer pH = 4.5, 37 C., 100 RPM, UV at 278 nm
Description: For each intrinsic dissolution measurement, a pellet was produced from the crystalline Form A or the amorphous form sample using an applied load of approximately 15 kN into a flat disk (surface area=0.5 cm^2). After compaction, each pellet was checked by XRPD to confirm that no polymorphic transformation had occurred during the pelleting process. [table] Batches of Form A and the amorphous form (from freeze-drying) were used to determine the intrinsic dissolution rate of both solid forms. Intrinsic dissolution allows the characterization of different crystal forms by exposing a constant surface area to the dissolution medium.

[2] = Storage stability at 25° C/0% RH and 25° C/90% RH; conditions: 25° C/0% relative humidity (RH) and 25° C/90% RH
[3] = Polymorphism screening / solid form stability and conversion; conditions: for thermodynamic stability / conversion of solid form: polymorphism screening, approximately 3000 crystallization experiments
Procedure: The amorphous form is non-crystalline and hygroscopic. […] In approximately 3000 crystallization experiments performed during polymorphism screenings, no additional polymorphic form was observed. Based on DSC measurements as well as temperature-controlled XRPD, no conversion of the polymorphic form is observable under heating until melting occurs. […] DSC thermograms were recorded using a Mettler-Toledo instrument (DSC820/821e/1; FRS05 sensor). Approximately 2-6 mg of the sample were placed in aluminum pans and sealed with aluminum lids. Lids were automatically pierced prior to heating. Generally, samples under nitrogen were heated at a rate of 10 K/min to a maximum of 250° C.

[4] = Hygroscopicity by dynamic moisture sorption/desorption (DVS); conditions: 25° C.; for reversible weight gain or loss: between 0% RH and 90% RH; for conversion during dynamic vapor sorption experiments: time scale of standard DVS experiments, 0-90% RH; for hygroscopicity classification: weight increase 0% RH to 90% RH
Procedure: Moisture sorption/desorption data were collected on a DVS-1/DVS-HT/DVS-intrinsic (SMS Surface Measurements Systems) moisture balance system. The sorption/desorption isotherms were measured stepwise in a range of 0% RH (relative humidity) to 90% RH at 25° C. A weight change of <0.002 mg/min was chosen as a criterion to switch to the next level of RH (with a maximum equilibration time of 24 hours, if the weight criterion was not met). The data were corrected for the initial moisture content of the samples; that is, the weight after drying the sample at 0% RH was taken as the zero point. The hygroscopicity of a given substance is characterized by the increase in mass when the RH was raised from 0% RH to 90% RH as given in Table 7. [table]

Water solubility = conditions: at 25° C.
[5] = listed as crystalline fumarate salt of Compound I

Intrinsic Dissolution Rate [1] [mg*cm−2*min−1]	change in assay, purity, moisture and dissolution [2]	thermal stability by DSC ([3]; DSC)	thermodynamic stability / conversion of solid form [3]	thermodynamic stability / conversion of solid form [3, 5]	reversible weight gain or loss [4] [%]	conversion during dynamic vapor sorption experiments [4]	hygroscopicity classification [4, 5]	solubility (Water solubility) [µg/mL]	intrinsic dissolution rate relative to crystalline Form A ([1]; amorphous form vs Form A)	conversion in slurry experiment ([3]; 2-propanol/water 88:12, 20° C.)	reversible weight gain or loss ([4]; listed as the amorphous from) [%]	hygroscopicity classification ([4]; listed as The amorphous form)	hygroscopicity classification ([4]; listed as the amorphous from)	Compound	hygroscopicity classification [4]	thermodynamic stability / conversion of solid form ([3]; listed as The amorphous form)
0.0756	no change	stable up to the melting point of 239 °C	thermodynamically stable form	thermodynamically stable	0.1	no conversion was observed	non-hygroscopic	1600	–	–	–	–	–	O=C(c1ccc(F)c(F)c1Nc1ccc(I)cc1F)N1CC(O)([C@@H]2CCCCN2)C1 [Form A, crystalline fumarate salt of (S)-[3,4-difluoro-2-(2-fluoro-4-iodophenylamino)phenyl] [3-hydroxy-3-(piperidin-2-yl)azetidin-1-yl]-methanone]	non-hygroscopic; also recorded: nonhygroscopic	–
2.6996	–	–	converts to crystalline Form A	–	–	no conversion was observed	–	–	approximately 35 times	converted rapidly into Form A	12.1	hygroscopic	hygroscopic	O=C(c1ccc(F)c(F)c1Nc1ccc(I)cc1F)N1CC(O)([C@@H]2CCCCN2)C1 [the amorphous form]	hygroscopic	convert to Form A by heating and by solvent mediated phase transition in water
